# Results from patent US20120171123A1, “USES AND COMPOSITIONS FOR TREATMENT OF RHEUMATOID ARTHRITIS” (priority 2006, published 2012).
# Tested on: MTX-naïve adult patients with active, early RA (<3 years)
# Assay: Study J: radiographic progression (TSS, joint erosion, joint space narrowing)
# Format: in vivo, human
# Design: key to mean change from baseline in TSS / Mean change in TSS / TSS after 2 years / change in TSS over 2 years / mean change in TSS from baseline / Mean ΔTSS at 1 year / Mean ΔTSS Yr 1-Yr 2: modified total Sharp score, 0-398 scale
# Conditions: for Annualized rate of radiographic progression (ΔTSS): all pts in treatment arm
# Source text: The co-primary endpoints, comparing MTX alone with the combination at 1 year, were the ACR50 response (using non-responder imputation), and inhibition of radiographic progression, as measured by change in total Sharp score (TSS). In this study, the term “Major Clinical Response” (MCR) meant a continuous ACR70 response for 6 or more consecutive months.
# At 1 and 2 years, the American College of Rheumatology (ACR) responses (ACR20, ACR50, and ACR70), the Disease Activity Score 28 (DAS28), and the change (Δ) in Total Sharp Score (TSS) were determined for all patients. Results were analyzed for the intention-to-treat (ITT) population using imputation for missing data. Clinical remission was defined as DAS28<2.6. The mean ΔTSS values at 1 year and 2 years (N=791) were determined for patients in each ACR response category (ACR20/50/70) and for patients with DAS28<2.6
# Radiographic progression was measured by Total Sharp Score (TSS) at baseline, and 1 and 2 years in the intention to treat population (ITT) using imputation for missing data. In this analysis, patients were divided into 1 of 2 categories by disease duration at baseline: <6 months (Group 1) or 6 months to 3 years (Group 2). Mean changes in TSS were reported for both groups by each of the 3 treatment arms from baseline to Year 1 and from Year 1 to Year 2.
# Radiographic progression was assessed by mean change from baseline in Total Sharp Score (TSS) and stratified into those with (ΔTSS>0.5) and without (Δ≦TSS 0.5). Patients were categorized as either having radiographic progression at 1 year (ΔTSS>0.5) or not (Δ≦TSS 0.5). A logistic regression model was used to identify predictors of radiographic disease progression by testing several baseline characteristics, including age, disease duration, RF status, TJC, SJC, joint erosions, and CRP. For analyses of CRP, patients were categorized as normal (CRP≦0.8 mg/dL) or abnormal (CRP>0.8 mg/dL).
# Mean change from baseline in Total Sharp Score (TSS) was measured at 6 months, 1 year, and 2 years in the intention-to-treat (ITT) population using imputation for missing data. Patients were classified as having radiographic progression (mean change in TSS>0.5) or without radiographic progression (ΔTSS≦0.5). Patients with inadequate data were excluded from this analysis.
# Patients in the Ada+MTX and the MTX arms were classified according to level of clinical response (non-responder (<ACR20), ACR20, ACR50, or ACR70) and radiographic progression (Yes or No (ΔTSS≦0.5)). The ΔTSS was analyzed overall, and for ACR subgroups. This included determination of mean ΔTSS and probability plots.
# Study J was a 2-year, double-blind, active comparator-controlled, Phase III study. […] For each patient, radiographs of hands and feet were taken at baseline, 6 months, 1 year and 2 years and evaluated for joint erosions (JE) and joint space narrowing (JSN) by 2 blinded radiologists. Changes from baseline in the modified total Sharp score (TSS, 0-398) were calculated for patients in each treatment arm. Cumulative probability plots were generated by estimating the probability of exceeding a given change in TSS. For each treatment, we calculated the percentages of patients whose ΔTSS exceeded specified thresholds, and the probability of having a given ΔTSS (using cumulative probability plots). For each of 4 cumulative probability ranges, 0-10%, 10-50%, 50-90% and 90-100% (higher numbered ranges=greater ΔTSS), mean ΔTSS values were calculated. In previous reports, Study J radiographic analyses employed linear imputation. In the present analysis, only observed data were employed, with no imputation.
structure (smiles),measurement,setting,value
"CN(Cc1cnc2nc(N)nc(N)c2n1)c1ccc(C(=O)N[C@@H](CCC(=O)O)C(=O)O)cc1 [mtx alone, methotrexate]",Annualized rate of radiographic progression (ΔTSS),0-6 mos,7.0 Sharp Score Units per Year
same,Annualized rate of radiographic progression (ΔTSS),1-2 yrs,4.7 Sharp Score Units per Year
same,patients with ΔTSS≦0.5 among those achieving DAS28 remission,1 year,47%
same,Mean change in TSS,"1 year, ACR20 responders",3.9
same,mean change in JE score,"1 year, ACR20 responders",2.0
same,mean change in JSN,"1 year, ACR20 responders",1.4
same,Mean change in TSS,"1 year, ACR50 responders",3.2
same,mean change in JE score,"1 year, ACR50 responders",2.2
same,mean change in JSN,"1 year, ACR50 responders",1.0
same,Mean change in TSS,"1 year, ACR70 responders",2.7
same,mean change in JE score,"1 year, ACR70 responders",1.6
same,mean change in JSN,"1 year, ACR70 responders",1.1
same,patients with no radiographic progression,"1 year, abnormal baseline CRP normalized at 1 year",33%
same,patients with no radiographic progression,"1 year, elevated CRP at both baseline and 1 year",31%
same,patients with no disease progression (ΔTSS≦0.5),"1 year, patients with CRP and X-rays available",38%
same,Mean change in TSS,"1 year, patients with DAS28<2.6",1.9
same,Mean change in TSS,"1 year, patients with DAS28<2.6, listed as MTX alone",2.8
same,% of patients with >4 change TSS,2 years,41.3%
same,% of patients with >10 change TSS,2 years,23.3%
same,% of patients with >20 change TSS,2 years,7%
same,patients with no radiographic progression (change in TSS ≦0.5),2 years,34%
same,patients with ΔTSS≦0.5 among those achieving DAS28 remission,2 years,47%
same,Mean change TSS in radiographic progressors (ΔTSS > 0.5),"2 years, ACR20 responders",9.4
same,mean change in JE score,"2 years, ACR20 responders",3.6
same,mean change in JSN,"2 years, ACR20 responders",2.3
same,mean change in TSS from baseline,"2 years, ACR20 responders",5.5
same,mean change in TSS from baseline,"2 years, ACR20 responders, listed as MTX alone",5.8
same,Mean change TSS in radiographic progressors (ΔTSS > 0.5),"2 years, ACR50 responders",8.5
same,mean change in JE score,"2 years, ACR50 responders",3.0
same,mean change in JSN,"2 years, ACR50 responders",1.8
same,mean change in TSS from baseline,"2 years, ACR50 responders",4.9
same,Mean change TSS in radiographic progressors (ΔTSS > 0.5),"2 years, ACR70 responders",7.5
same,mean change in JE score,"2 years, ACR70 responders",2.6
same,mean change in JSN,"2 years, ACR70 responders",1.4
same,mean change in TSS from baseline,"2 years, ACR70 responders",4.1
same,Mean change in TSS,"2 years, patients with DAS28<2.6",2.8
same,Mean change in TSS,"2 years, patients with DAS28<2.6, listed as MTX alone",1.9
same,"Frequency of radiographic progression (ΔTSS > 0.5), % of patients","2 years, ACR20 responders, observed data",62%
same,"Frequency of radiographic progression (ΔTSS > 0.5), % of patients","2 years, ACR50 responders, observed data",60%
same,"Frequency of radiographic progression (ΔTSS > 0.5), % of patients","2 years, ACR70 responders, observed data",57%
same,Mean change TSS in radiographic progressors (ΔTSS > 0.5),"2 years, Non-responder (<ACR20)",15.5
same,"Frequency of radiographic progression (ΔTSS > 0.5), % of patients","2 years, Non-responder (<ACR20), observed data",75%
same,Mean change in TSS,"2 years, all points (0-100), observed data",6.4
same,Mean change in TSS,"2 years, cumulative probability range 0-10",−3.9
same,Mean change in TSS,"2 years, cumulative probability range 10-50",0.5
same,Mean change in TSS,"2 years, cumulative probability range 50-90",7.6
same,Mean change in TSS,"2 years, cumulative probability range 90-100",31.4
same,% of patients with >4 change TSS,6 months,0%
same,% of patients with >10 change TSS,6 months,1.7%
same,% of patients with >20 change TSS,6 months,2.3%
same,patients with no radiographic progression,6 months,51%
same,Mean change TSS in radiographic progressors (ΔTSS > 0.5),"6 months, ACR20 responders",4.8
